Structures can show the parent of a compound that is named as a salt. Where two headings read alike, the source gives them in different places. A value given as a limit tells only on which side of the number the result lay.

The results in this text go back to US4912102A, “Analogs of naphtho[1,2-β] [1,4] thiazepin-4(5H)-one” (Hoffmann-La Roche Inc., priority 1988, dated 1990).

The test system of experiment [1] is Guinea Pig Ileal Longitudinal Smooth Muscle. Description: Inhibition of K+-induced tonic contraction, guinea pig ileum assay (calcium channel blocking activity). The format is cell-based. To be noted: for IC50: tonic contraction, 80 mM K+ challenge, 37° C., read-out: Inhibition of K^+-Induced Contractile Responses, IC50, Tonic; for activity in the guinea pig ileum test: doses up to 10^-4 M. How it is done:
Male guinea-pigs weighing from 300-400 grams were stunned and bled. The abdomen was opened and 10-15 cm of terminal ileum was carefully removed and cleaned and placed in Tyrode's Solution of the following composition: NaCl (8 g/l), KCl (0.2 g/l), MgCl2 (0.1 g/l), CaCl2 (0.2 g/l). NaH2 PO4 (0.05 g/l), NaHCO3 (1.0 g/l) and Glucose (1 g/l). The solution was maintained at 37° C. and gassed with 95% O2 and 5% CO2. Portions of the ileum were placed over a glass rod, a shallow incision was made the length of the mesenteric attachment just severing the outer-longitudinal muscle layer. The longitudinal muscle was separated from the underlying circular muscle by gentle dissection (Rang. H. P. Annals. of New York Academy of Science, vol. 144, page 756, 1964). The tissue was fixed at one end to a tissue holder, the other end was connected by a thread to a force transducer and suspended in a muscle bath containing Tyrode's Solution maintained at 37° C. and gassed with 95% O2 and 5% CO2. An initial tension of 500 mg was applied and the tissue allowed to equilibrate for 60 minutes prior to the start of the study. During this period the tissue was washed every 16 minutes. Each preparation, at 16 minute intervals, was challenged with KCl sufficient to yield a bath K+ concentration of 80 mMK for 2 minutes, then washed with fresh solution. The 16 minute interval between K+ challenges was maintained throughout the study. Upon stabilization of the responses to the K+ challenge the test compound (potential calcium entry antagonist) was introduced into the bath 2 minutes prior to and during the 2 minute exposure to K+ after which the bath was cleared and washed with fresh solution. Logarithmically increasing doses (up to 10^-4 M) of the potential antagonist were administered as the study progressed. The measure of a compound's ability to inhibit the tonic contraction of muscle is a measure of its activity as a calcium channel blocking agent.

In experiment [2] the test system is lipid peroxidation in liposomes prepared from native rat cardiac lipid. Put plainly: Anti-peroxidative activity (superoxide-dependent, iron-promoted lipid peroxidation, MDA-like products). The format is biochemical. To be noted: for Anti-Peroxidative Activity % Inhibition (1 μM) / IC50: 60 minutes at 37° C. How it is done: An in vitro assay system to measure antiperoxidative activity is done in two steps: (A) lipid peroxidation is triggered by a free-radical generating system that replicates the superoxide-dependent, iron-promoted Haber-Weiss reaction, and (B) peroxidation is measured spectrophotometrically as the production of malondialdehyde-like products (MDA). Liposomes prepared from the native rat cardiac lipid are incubated with hypoxanthine, xanthine oxidase, and Fe· ADP chelate, and a test substance or buffer in glass tubes for 60 minutes at 37° C. The amount of peroxidation is determined by adding a thiobarbituric acid-reaction mixture to the tubes, heating to 80° C. for 30 minutes and reading the pink adduct at 530 nm.

As usually defined, the IC50 is the concentration that inhibits the measured activity by half. As to `COc1ccc([C@@H]2Sc3c(ccc4ccccc34)N(CCN(C)C)C(=O)[C@@H]2OC(=O)c2ccccc2O)cc1` (racemic) [Compound F, (±)-cis-2,3-dihydro-3-[(2-hydroxybenzoyl)oxy]-5-[2-(dimethylamino)ethyl]-2-(4-methoxyphenyl)naphtho[1,2-b][1,4]thiazepin-4(5H)-one hydrochloride], in experiment [1] (Cavia porcellus), the IC50 was 45 µM. On to `COc1ccc([C@@H]2Sc3c(ccc4ccccc34)N(CCN(C)C)C(=O)[C@@H]2OC(=O)c2cc(OC)c(OC)c(OC)c2)cc1` (racemic) [Compound J, (±)-cis-2,3-dihydro-2-(4-methoxyphenyl)-3-[(3,4,5-trimethoxybenzoyl)oxy]-5-[2-(dimethylamino)ethyl]naphtho [1,2-b][1,4]thiazepin-4(5H)-one hydrochloride], for which, in experiment [1] (Cavia porcellus), the IC50 was found to be 70 µM. Turning to `COc1ccc([C@@H]2Sc3c(ccc4ccccc34)N(CCN(C)C)C(=O)[C@@H]2OC(=O)c2cc(C(C)(C)C)c(O)c(C(C)(C)C)c2)cc1` (racemic) [Example 14, (±)-cis-2,3-Dihydro-3-[[4-hydroxy-3,5-bis(1,1-dimethylethyl)benzoyl]oxy]-2-(4-methoxyphenyl)-5-[2-(dimethylamino)ethyl]naphtho[1,2-b][1,4]thiazepin-4(5H)-one], in experiment [1], the “activity in the guinea pig ileum test” value is recorded as “not found to be active”. For the same compound, the “activity in the anti-peroxidative test” value in experiment [2] was “active”. With `CNCCN1C(=O)[C@H](O)[C@H](c2ccc(OC)cc2)Sc2c1ccc1ccccc21` (relative stereo) [Compound C], the half-inhibitory concentration (IC50) in experiment [1] is 7 µM. For `CNCCN1C(=O)[C@H](OC(C)=O)[C@H](c2ccc(OC)cc2)Sc2c1ccc1ccccc21` (relative stereo) [Compound D], the half-inhibitory concentration (IC50) in experiment [1] was found to be 3.5 µM. In the case of `COc1ccc([C@@H]2Sc3c(ccc4ccccc34)N(CCN(C)C)C(=O)[C@@H]2OC(=O)c2ccccc2OC(C)=O)cc1` (relative stereo) [Compound E, (±)-cis-3-[[(2-acetyloxy)benzoyl]oxy]-2,3-dihydro-5-[2-(dimethylamino)ethyl]-2-(4-methoxyphenyl)naphtho[1,2-b][1,4]thiazepin-4(5H)-one hydrochloride], the half-inhibitory concentration (IC50) in experiment [1] (Cavia porcellus) turned out to be 13 µM. For the compound `COc1ccc([C@@H]2Sc3c(ccc4ccccc34)N(CCN(C)C)C(=O)[C@@H]2OC(=O)c2cccnc2)cc1` (relative stereo) [Compound M, (±)-cis-2,3-dihydro-2-(4-methoxyphenyl)-5-[2-(dimethylamino)ethyl]-3-[(3-pyridinylcarbonyl)oxy]naphtho[1,2-b][1,4]thiazepin-4(5H)-one dihydrochloride (4:5) hydrate], the IC50 in experiment [1] (Cavia porcellus) is 16 µM. With `COc1ccc([C@@H]2Sc3c(ccc4ccccc34)N(CCN(C)C)C(=O)[C@@H]2OC(=O)c2ccc(OC)c(OC)c2)cc1` (relative stereo) [Example 4, (±)-cis-3-[(3,4-Dimethoxybenzoyl)oxy]-2,3-dihydro-5-[2-(dimethylamino)ethyl]-2-(4-methoxyphenyl)naphtho][1,2-b][1,4]thiazepin-4(5H)-one], the “activity in the guinea pig ileum test” value in experiment [1] is “not found to be active”. In addition, the “activity in the anti-peroxidative test” value in experiment [2] is “active”.

`COc1ccc([C@@H]2Sc3c(ccc4ccccc34)N(CCN(C)C)C(=O)[C@@H]2OC(=O)C2(C)CCc3c(cc(C(C)C)c(O)c3C(C)C)O2)cc1` (relative stereo) [Example 15 isomer "A", [(±)-cis-3(2alpha or 2beta)]-2,3-dihydro-3-[[[3,4-dihydro-6-hydroxy-2-methyl-5,7-bis(1-methylethyl)-2H-1-benzopyran-2-yl]carbonyl]oxy]-5-[2-(dimethylamino)ethyl]-2-(4-methoxyphenyl)naphtho[1,2-b][1,4]thiazepin-4(5H)-one]: in experiment [2], the “activity in the anti-peroxidative test” value is on record as “found to be active” and the 50% inhibitory concentration (IC50) is less than 1 µM. In experiment [2] (listed as drawing 26, 1 µM), the “Anti-Peroxidative Activity % Inhibition (1 μM)” value was 62.6%. As for `COc1ccc([C@@H]2Sc3c(ccc4ccccc34)N(CCN(C)C)C(=O)[C@@H]2OC(=O)C2(C)CCc3c(cc(C(C)C)c(O)c3C(C)C)O2)cc1` (relative stereo) [Example 15 isomer "B", [(±)-cis-3(2alpha or 2beta)]-2,3-dihydro-3-[[[3,4-dihydro-6-hydroxy-2-methyl-5,7-bis(1-methylethyl)-2H-1-benzopyran-2-yl]carbonyl]oxy]-5-[2-(dimethylamino)ethyl]-2-(4-methoxyphenyl)naphtho[1,2-b][1,4]thiazepin-4(5H)-one], the “Anti-Peroxidative Activity % Inhibition (1 μM)” value in experiment [2] (listed as drawing 27, 1 µM) came out at 66.7%. The same compound came in with an IC50 in experiment [2] of less than 1 µM. Turning to `COc1ccc([C@@H]2Sc3c(ccc4ccccc34)N(CCN(C)C)C(=O)[C@@H]2OC(=O)C2(C)CCc3c(C)c(O)c(C)c(C)c3O2)cc1` (relative stereo) [Example 18, [(+)-cis-3(2alpha and 2beta)1-2,3-Dihydro-3-[[(3,4-dihydro-6-hydroxy-2,5,7,8-tetramethyl-2H-1-benzopyran-2-yl)carbonyl]oxy]-2-(4-methoxyphenyl)-5-[2-(dimethylamino)ethyl]naphtho[1,2-b][1,4]thiazepin-4(5H)-one], the “activity in the guinea pig ileum test” value in experiment [1] is “not found to be active”. In experiment [2], the “activity in the anti-peroxidative test” value is “active”. In the case of `COc1ccc([C@@H]2Sc3c(ccc4ccccc34)N(CCN(C)C)C(=O)[C@@H]2OC(=O)C2(C)CCc3c(cc(C(C)C)c(O)c3C(C)C)O2)cc1` (single isomer, unassigned; (+)) [Example 17 isomer "A", [(+)-Cis-3(2α or 2β)]-2,3-dihydro-3-[[[3,4-dihydro-6-hydroxy-2-methyl-5,7-bis(1-methylethyl)-2H-1-benzopyran-2-yl]carbonyl]oxy]-5-[2-(dimethylamino)ethyl]-2-(4-methoxyphenyl)naphtho[1,2-b][1,4]thiazepin-4(5H)-one (E)-2-butenedioate monohydrate], the “activity in the guinea pig ileum test” value in experiment [1] is “not found to be active”. Also, in experiment [2], the “activity in the anti-peroxidative test” value is “found to be active” and the IC50 is less than 1 µM. Also, in experiment [2] (monohydrate), the “Anti-Peroxidative Activity % Inhibition (1 μM)” value was determined as 58.5%.

Turning to `COc1ccc([C@@H]2Sc3c(ccc4ccccc34)N(CCN(C)C)C(=O)[C@@H]2OC(=O)C2(C)CCc3c(cc(C(C)C)c(O)c3C(C)C)O2)cc1` (single isomer, unassigned; (+)) [Example 17 isomer "B", [(+)-cis-3(2alpha, or 2beta)]-2,3-dihydro-3-[[[3,4-dihydro-6-hydroxy-2-methyl-5,7-bis(1-methylethyl)-2H-1-benzopyran-2-yl]carbonyl]oxy]-5-[2-(dimethylamino)ethyl]-2-(4-methoxyphenyl)naphtho[1,2-b][1,4]thiazepin-4(5H)-one], in experiment [1], the “activity in the guinea pig ileum test” value was “not found to be active”. For the same compound, in experiment [2], the “Anti-Peroxidative Activity % Inhibition (1 μM)” value turned out to be 59.6% and the IC50 was less than 1 µM.
